Data published in patent US10750743B2, “Pyridazinone herbicides” (E.I. DU PONT DE NEMOURS AND COMPANY, priority 2015, dated 2020).

Experiments:
Type in all cases: in vivo
rice (Oryza sativa) = test: Test B flooded paddy test, visual rating; settings: Flood, 250 g ai/ha, applied to paddy water, rated after 13 to 15 d
Procedure, shortened: (§1)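 Ratings use a 0-100 visual scale, where 100 is complete control, and compare treated plants with controls after 13 to 15 d of greenhouse growth. Compound went straight into paddy water kept 3 cm over the soil surface, applied to seedlings at the 2-leaf stage.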

[1] = test system: ducksalad (Heteranthera limosa); test: Test B flooded paddy test, visual rating; settings: Flood, 250 g ai/ha, applied to paddy water, rated after 13 to 15 d
Procedure, shortened: as §1

[2] = test system: sedge, umbrella (small-flower umbrella sedge, Cyperus difformis); test: Test B flooded paddy test, visual rating; settings: Flood, 250 g ai/ha, applied to paddy water, rated after 13 to 15 d
Procedure, shortened: as §1

[3] = test system: barnyardgrass (Echinochloa crus-galli); test: Test B flooded paddy test, visual rating; settings: Flood, 250 g ai/ha, applied to paddy water, rated after 13 to 15 d
Procedure, shortened: as §1

[4] = test system: ragweed (common ragweed, Ambrosia elatior); test: Test A preemergence, directed soil spray, visual injury rating; settings: 0 is no effect, 100 is complete control
Procedure, shortened: (§2)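 Injury ratings, 0 (no effect) to 100 (complete control), were scored visually versus untreated plants roughly 10 d after treatment under greenhouse conditions. Treatments used surfactant-containing solvent formulations, sprayed onto soil preemergence or onto one- to two-leaf seedlings (2-10 cm) postemergence, grown in a loam-sand mix.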

Foxtail, Green [5] = test: as above; settings: 0 is no effect, 100 is complete control
[6] = test system: ryegrass, It. (Italian ryegrass, Lolium multiflorum); test: as above; settings: 0 is no effect, 100 is complete control
Procedure, shortened: as §2

kochia (Kochia scoparia) [7] = test: as above; settings: 0 is no effect, 100 is complete control
Procedure, shortened: as §2

[8] = test system: barnyardgrass (Echinochloa crus-galli); test: as above; settings: 0 is no effect, 100 is complete control
Procedure, shortened: as §2

[9] = test system: pigweed (Amaranthus retroflexus); test: as above; settings: 0 is no effect, 100 is complete control
Procedure, shortened: as §2

[10] = test system: ragweed (common ragweed, Ambrosia elatior); test: Test A postemergence application, visual injury rating; settings: 0 to 100 scale, 0 no effect, 100 complete control
Procedure, shortened: as §2

Foxtail, Green [11] = test: as above; settings: 0 to 100 scale, 0 no effect, 100 complete control
[12] = test system: wheat (Triticum aestivum); test: as above; settings: 0 to 100 scale, 0 no effect, 100 complete control
Procedure, shortened: as §2

[13] = test system: ryegrass, It. (Italian ryegrass, Lolium multiflorum); test: as above; settings: 0 to 100 scale, 0 no effect, 100 complete control
Procedure, shortened: as §2

kochia (Kochia scoparia) [14] = test: as above; settings: 0 to 100 scale, 0 no effect, 100 complete control
Procedure, shortened: as §2

[15] = test system: blackgrass (Alopecurus myosuroides); test: as above; settings: 0 to 100 scale, 0 no effect, 100 complete control
Procedure, shortened: as §2

[16] = test system: barnyardgrass (Echinochloa crus-galli); test: as above; settings: 0 to 100 scale, 0 no effect, 100 complete control
Procedure, shortened: as §2

[17] = test system: pigweed (Amaranthus retroflexus); test: as above; settings: 0 to 100 scale, 0 no effect, 100 complete control
Procedure, shortened: as §2

corn (Zea mays) = test: as above; settings: 0 to 100 scale, 0 no effect, 100 complete control
Procedure, shortened: as §2

[18] = test system: galium (catchweed bedstraw, Galium aparine); test: as above; settings: 0 to 100 scale, 0 no effect, 100 complete control
Procedure, shortened: as §2

SMILES	Rice plant response rating (0 to 100 scale, 0 is no effect, 100 is complete control) (rice (Oryza sativa))	Ducksalad plant response rating (0 to 100 scale, 0 is no effect, 100 is complete control) [1]	Sedge, Umbrella plant response rating (0 to 100 scale, 0 is no effect, 100 is complete control) [2]	Barnyardgrass plant response rating (0 to 100 scale, 0 is no effect, 100 is complete control) [3]	Plant response rating (0 to 100 scale), Ragweed ([4]; 31 g ai/ha)	Plant response rating (0 to 100 scale), Ragweed ([4]; 125 g ai/ha)	Plant response rating (0 to 100 scale), Foxtail, Green (Foxtail, Green [5]; 31 g ai/ha)	Plant response rating (0 to 100 scale), Foxtail, Green (Foxtail, Green [5]; 125 g ai/ha)	Plant response rating (0 to 100 scale), Ryegrass, It. ([6]; 31 g ai/ha)	Plant response rating (0 to 100 scale), Ryegrass, It. ([6]; 125 g ai/ha)	Plant response rating (0 to 100 scale), Kochia (kochia (Kochia scoparia) [7]; 31 g ai/ha)	Plant response rating (0 to 100 scale), Kochia (kochia (Kochia scoparia) [7]; 125 g ai/ha)	Plant response rating (0 to 100 scale), Barnyardgrass ([8]; 31 g ai/ha)	Plant response rating (0 to 100 scale), Barnyardgrass ([8]; 125 g ai/ha)	Plant response rating (0 to 100 scale), Pigweed ([9]; 31 g ai/ha)	Plant response rating (0 to 100 scale), Pigweed ([9]; 125 g ai/ha)	Ragweed plant response rating ([10]; 31 g ai/ha)	Ragweed plant response rating ([10]; 125 g ai/ha)	Foxtail, Green plant response rating (Foxtail, Green [11]; 31 g ai/ha)	Foxtail, Green plant response rating (Foxtail, Green [11]; 125 g ai/ha)	also measured
Cc1cc2ccc(C(F)(F)F)c(-c3c(O)c(C)nn(C)c3=O)c2o1 [Compound 49]	0	0	0	0	0	90	0	0	20	50	0	40	0	0	30	100	80	90	20	30	Wheat plant response rating ([12]; 31 g ai/ha): 0; Wheat plant response rating ([12]; 125 g ai/ha): 0; Ryegrass, It. plant response rating ([13]; 31 g ai/ha): 10; Ryegrass, It. plant response rating ([13]; 125 g ai/ha): 40; Kochia plant response rating (kochia (Kochia scoparia) [14]; 31 g ai/ha): 60; Kochia plant response rating (kochia (Kochia scoparia) [14]; 125 g ai/ha): 80; Blackgrass plant response rating ([15]; 31 g ai/ha): 0; Blackgrass plant response rating ([15]; 125 g ai/ha): 0; Barnyardgrass plant response rating ([16]; 31 g ai/ha): 0; Barnyardgrass plant response rating ([16]; 125 g ai/ha): 10; Pigweed plant response rating ([17]; 31 g ai/ha): 90; Pigweed plant response rating ([17]; 125 g ai/ha): 100; Corn plant response rating (corn (Zea mays); 31 g ai/ha): 0; Corn plant response rating (corn (Zea mays); 125 g ai/ha): 20; Galium plant response rating ([18]; 31 g ai/ha): 80; Galium plant response rating ([18]; 125 g ai/ha): 90
Cc1nn(C)c(=O)c(-c2ccc(Cl)c3ccoc23)c1O [Compound 56]	0	0	0	0	0	0	0	0	10	70	0	0	0	0	0	40	0	0	0	10	Wheat plant response rating ([12]; 31 g ai/ha): 0; Wheat plant response rating ([12]; 125 g ai/ha): 0; Ryegrass, It. plant response rating ([13]; 31 g ai/ha): 50; Ryegrass, It. plant response rating ([13]; 125 g ai/ha): 50; Kochia plant response rating (kochia (Kochia scoparia) [14]; 31 g ai/ha): 0; Kochia plant response rating (kochia (Kochia scoparia) [14]; 125 g ai/ha): 0; Blackgrass plant response rating ([15]; 31 g ai/ha): 0; Blackgrass plant response rating ([15]; 125 g ai/ha): 0; Barnyardgrass plant response rating ([16]; 31 g ai/ha): 0; Barnyardgrass plant response rating ([16]; 125 g ai/ha): 10; Pigweed plant response rating ([17]; 31 g ai/ha): 0; Pigweed plant response rating ([17]; 125 g ai/ha): 0; Corn plant response rating (corn (Zea mays); 31 g ai/ha): 0; Corn plant response rating (corn (Zea mays); 125 g ai/ha): 0; Galium plant response rating ([18]; 31 g ai/ha): 60; Galium plant response rating ([18]; 125 g ai/ha): 100
